Experiments:
[1] = tested on: HaCaT cells (HPV negative non-tumorigenic immortal keratinocytes); test: Cell proliferation (crystal violet), dose-response, HaCaT; settings: Homo sapiens, 72 h
Protocol: (§1) Immortal and HPV negative cell line HaCaT cells was selected as control for both immortality status and HPV content. […] In order to evaluate the effect of the naphthoquine amino acid derivatives in immortal and tumorigenic cells with HPV positive and negative status we performed a dose-response analysis.
(§2) (A) HaCaT HPV negative cell line cells were treated with 6.25, 12.5, 25, 50, 100 and 200 μM of naphthoquinone amino acid derivatives to assay proliferation rate at 72 h post-treatment. (B) SiHa HPV 16 positive cancer cells were treated with 6.25, 12.5, 25, 50, 100 and 200 μM of naphthoquinone amino acid derivatives to assay proliferation rate at 72 h post-treatment. (C) CaLo HPV 18 positive cancer cells were treated with 6.25, 12.5, 25, 50, 100 and 200 μM of naphthoquinone amino acid derivatives to assay proliferation rate at 72 h post-treatment. […] Cells treated with 0.1% of DMSO were used as Control. * represents statistically significant p < 0.05 value.
(§3) Cell proliferation was quantified by violet crystal dye in 1X phosphate-buffered saline (PBS) (2.7 mM KCl, 1.8 mM KH2PO4, 136 mM NaCl, 10 mM Na2HPO4 pH 7.4). The treated cells were incubated in methanol for 15 min and washed two times with distilled water. Cells were dyed with 0.1% crystal violet and washed three times with water and finally violet crystal was recovered with 10% acid acetic to be analyzed in microplate reader Multiskan GO Spectrophotometer (Thermo Scientific™, Ratastie, Finland).

[2] = tested on: CaLo cells (HPV-18 positive cervical tumor line); test: Cell proliferation (crystal violet), dose-response, CaLo; settings: 72 h
Protocol: as §1, §2, §3

[3] = Cyclic voltammetry in 0.1 M TBABF4/DMSO; settings: for irreversible anodic peak (negative potential region) / irreversible oxidation potential peak (positive potential region): Figure 2, vs Ag/Ag+, 100 mV s^−1; for ipa: anodic peak current density; for ipa / Epa / ipc / Epc / E1/2 / ΔEp / |ipa/ipc|: TBABF4 0.1 M/DMSO, 100 mV/s; for Epa: anodic peak potential of redox reaction; for Epa / Epc: vs Ag/Ag+ pseudo-reference; for ipc: cathodic peak current density; for Epc: cathodic peak potential of redox reaction; for E1/2: half-wave potential, E1/2 = (Epa + Epc)/2, vs Ag/Ag+; for ΔEp: potential peak separation, ΔEp = Epc − Epa; for |ipa/ipc|: ratio of anodic to cathodic peak current (reversibility)
Protocol: Electrochemical studies of naphthoquinone–amino acids (3a–c) and chloride–naphthoquinone–amino acids (4a–c) derivatives were studied by cyclic voltammetry (CV) as previously reported [24]. Briefly, non-aqueous solutions of compounds 3a–c or 4a–c at a concentration of 5 mM were dissolved in dimethyl sulfoxide (DMSO, Sigma–Aldrich, St. Louis, MO, USA) containing 0.1 M tetrabutylammonium tetrafluoroborate (TBABF4, Sigma–Aldrich, St. Louis, MO, USA) as supporting electrolyte. Then, the non-aqueous solutions containing 3a–c or 4a–c were studied by CV in a three-electrode cell using a freshly polished glassy carbon disk electrode (GC) (0.07 cm^2, BASi, West Lafayette, IN, USA) as working electrode and a Pt wire (Alfa-Aesar, Tewksbury, MA, USA) as counter electrode. An Ag/Ag^+ electrode in 0.1 M TBABF4/DMSO was used as pseudo-reference electrode. A potential scan was performed from −2.0 V to 0.75 V vs. Ag/Ag^+ at 100 mV s^−1 in the cathodic direction in order to identify any electron transfer reaction associated to compounds 3a–c or 4a–c using a potentiostat/galvanostat PAR VersaStat 3 (Ametek, Inc. Berwyn, PA, USA). Furthermore, any redox reaction processes of 3a–c or 4a–c were further studied at a scan rate of 10, 25, 50, 100, 200, and 300 mV s^−1. As received TBABF4 and DMSO were used without further purification or drying processes. All the non-aqueous testing solutions were degassed for 30 min with high-purity N2 gas before cyclic voltammetry experiments.

[4] = tested on: SiHa cells (HPV-16 positive cervical tumor line); test: Cell proliferation (crystal violet), dose-response, SiHa; settings: Homo sapiens, 72 h
Protocol: as §1, §2, §3

## O=C1C(Cl)=C(NC(Cc2c[nH]c3ccccc23)C(=O)O)C(=O)c2ccccc21 (stereo not shown) [Compound 4c, 2-((3-chloro-1,4-dioxo-1,4-dihydronaphthalen-2-yl)amino)-3-(1H-indol-3-yl)propanoic acid]
[1]
  IC50: ~0.331 µM
[2]
  IC50: 2.7 µM
[3]
  irreversible anodic peak (negative potential region): −0.36 V
  irreversible oxidation potential peak (positive potential region): 0.46 V
  ipa: 0.23 mA cm^−2
  Epa: −1.05 V
  ipc: −0.27 mA cm^−2
  Epc: −1.17 V
  E1/2: −1.11 V
  ΔEp: 0.12 V
  |ipa/ipc|: 0.85
[4]
  IC50: 3.21 µM

## O=C1C(Cl)=C(NC(Cc2ccc(O)cc2)C(=O)O)C(=O)c2ccccc21 (stereo not shown) [Compound 4a, 2-((3-chloro-1,4-dioxo-1,4-dihydronaphthalen-2-yl)amino)-3-(4-hydroxyphenyl)propanoic acid]
[1]
  IC50: 9.88 µM
[2]
  IC50: 7.03 µM
[3]
  irreversible anodic peak (negative potential region): −0.33 V
  irreversible oxidation potential peak (positive potential region): higher than 0.5 V
  ipa: 0.22 mA cm^−2
  Epa: −1.04 V
  ipc: −0.24 mA cm^−2
  Epc: −1.15 V
  E1/2: −1.10 V
  ΔEp: 0.11 V
  |ipa/ipc|: 0.92
[4]
  IC50: 6.83 µM

## O=C1C=C(NC(Cc2ccc(O)cc2)C(=O)O)C(=O)c2ccccc21 (stereo not shown) [Compound 3a, 2-((1,4-dioxo-1,4-dihydronphthalen-2-yl)amino)-3-(4-hydroxyphenyl) propanoic acid]
other
  melting point: 214 to 216 °C
[1]
  IC50: 61.6 µM
[2]
  IC50: 81.1 µM
[3]
  irreversible oxidation potential peak (positive potential region): higher than 0.5 V
  ipa: 0.28 mA cm^−2
  Epa: −1.15 V
  ipc: −0.30 mA cm^−2
  Epc: −1.27 V
  E1/2: −1.21 V
  ΔEp: 0.13 V
  |ipa/ipc|: 0.95
[4]
  IC50: 41 µM

## CC(C)C(NC1=CC(=O)c2ccccc2C1=O)C(=O)O (stereo not shown) [Compound 3b, 2-((1,4-dioxo-1,4-dihydronaphthalen-2-yl)amino)-3-methylbutanoic acid]
other
  melting point: 170 to 172 °C
[1]
  IC50: 55.3 µM
[2]
  IC50: 57 µM
[3]
  irreversible anodic peak (negative potential region): −0.2 V
  irreversible oxidation potential peak (positive potential region): 0.60 V
  ipa: 0.28 mA cm^−2
  Epa: −1.16 V
  ipc: −0.30 mA cm^−2
  Epc: −1.27 V
  E1/2: −1.21 V
  ΔEp: 0.12 V
  |ipa/ipc|: 0.95
[4]
  IC50: 47.2 µM

## O=C1C=C(NC(Cc2c[nH]c3ccccc23)C(=O)O)C(=O)c2ccccc21 (stereo not shown) [Compound 3c, 2-((1,4-dioxo-1,4-dihidronaphthalen-2-yl)amino)-3-(1H-indol-3-yl)propanoic acid]
[1]
  IC50: 40.8 µM
[2]
  IC50: 25.2 µM
[3]
  irreversible oxidation potential peak (positive potential region): 0.45 V
  ipa: 0.26 mA cm^−2
  Epa: −1.19 V
  ipc: −0.27 mA cm^−2
  Epc: −1.30 V
  E1/2: −1.24 V
  ΔEp: 0.11 V
  |ipa/ipc|: 0.95
[4]
  IC50: 28.8 µM

## CC(C)C(NC1=C(Cl)C(=O)c2ccccc2C1=O)C(=O)O (stereo not shown) [Compound 4b, 2-((3-chloro-1,4-dioxo-1,4-dihydronaphthalen-2-yl)amino)-3-methylbutanoic acid]
other
  melting point: 54 to 56 °C
[1]
  IC50: 7.97 µM
[2]
  IC50: 2.88 µM
[3]
  irreversible anodic peak (negative potential region): −0.36 V
  irreversible oxidation potential peak (positive potential region): 0.57 V
  ipa: 0.21 mA cm^−2
  Epa: −1.05 V
  ipc: −0.25 mA cm^−2
  Epc: −1.19 V
  E1/2: −1.12 V
  ΔEp: 0.14 V
  |ipa/ipc|: 0.83
[4]
  IC50: 11.3 µM
